Data reported in US9636324B2, “Use of 15-benzylidence-14-deoxy-11, 12 -dehyroandrographolide derivative in manufacture of medicaments for protecting liver and anti-hepatitis C virus” (Zhengzhou University, priority 2012, dated 2017).

Tests used:
MDBK (NBL-1) cells = assay: MTT assay for cytotoxicity; type: cell-based, bovine; details: 0-7.5 μmol/L, 48 h
Protocol: The drug-containing medium is added and further incubated for 48 h. MTT is added (5 mg/mL) at 20 μL/well and cultured for 4 h, the supernatant is discarded and 150 μL DMSO is added, then the plate is shaken for 10 minutes and the absorbance is determined using a microplate reader using the wavelength 570 nm and a reference wavelength 450 nm. The cell survival rate is calculated after treatment of compounds: cell survival rate (%)=drug group A value/cell control group A value×100%, and the results are shown in FIG. 10. Cell proliferation inhibition rate (%)=100%−survival rate (%), half maximal (50%) toxic concentration (TC50) is calculated according to Reed-Muench method.

[1] = system: mice with ConA induced liver damage; assay: ConA induced immunological liver damage model in mice; type: in vivo, Kunming mice
Protocol: Kunming mice of clean grade (male, weight 20±2 g, supplied by the Laboratory Animal Center, Henan Province) are randomly divided into groups with 6 mice in each group. Bifendate (Xinchang Pharmaceutical Factory of Zhejiang Pharmaceutical Co., Ltd, 200 mg/kg) is used as positive control, andrographolide (AD) is provided by Furen Pharmaceutical Group Co., Ltd, and the test compounds are synthesized by the inventors with purities higher than 99.0%. Normal control group and model group are intragastrically given 0.5% sodium carboxymethylcellulose (CMC-Na), and test groups are given 0.5% CMC-Na suspensions with AD (0.88 mmol/kg), and low dosage (0.66 mmol/kg) and high dosage (0.88 mmol/kg) of compound A, B and C, respectively. The drugs are given for 3 days. One hour after the last administration, all mice except those in the normal control group are injected with a single dose of ConA (20 mg/kg) through the caudal vein. After 8 h, the eyeball is enucleated to collect blood, which is centrifuged at 3000 rpm for 15 min to separate serum. ALT and AST are tested according to the kit specification, respectively (Nanjing Jiancheng Bioengineering Institute). The left lobe of liver is taken to prepare 10% homogenate using physiological saline, MDA is determined according to the kit specification (Nanjing Jiancheng Bioengineering Institute). To 50 μL liver homogenate is added 2 mL of 0.5 mol/L KOH-methanol solution and kept at 50° C. water bath to isomerize for 20 minutes, then absorbance (A value) is measured at 278 nm, using the A value per mL of homogenate to represent the PGE2 content. Experimental data are expressed as average±standard deviation (X±s), analyzed with SPSS 11.5 statistic software, with P<0.05 meaning significant difference.
Kunming mice of clean grade (male, weight 20±2 g) are randomly divided into normal group, model group, bifendate (Zhejiang Wanbang Pharmaceutical Co., Ltd) positive control group (200 mg/kg), AD group (0.88 mmol/kg), low dosage group (0.66 mmol/kg) and high dosage (0.88 mmol/kg) group of compound D. ALT, AST, and MDA assay kits are purchased from Nanjing Jiancheng Bioengineering Institute. Other agents, drugs and experimental methods are the same as in EXAMPLE 1.
In experimental investigation of both models, the following grouping method is used: Kunming mice of clean grade (male, weight 20±2 g) are randomly divided into normal group, model group, bifendate group (200 mg/kg), AD group (0.88 mmol/kg), low dosage group (0.66 mmol/kg) and high dosage group (0.88 mmol/kg) of compound E, with 8 mice in each group. Other agents, drugs and experimental methods are the same as in EXAMPLE 1 and in EXAMPLE 4, respectively.

[2] = system: mice with carbon tetrachloride induced liver damage; assay: Carbon tetrachloride induced chemical liver damage model in mice; type: in vivo, Kunming mice
Protocol: Kunming mice of clean grade (male, weight 20±2 g), after adaptively fed for 3 days, are randomly divided into normal group, model group, bifendate positive control group (200 mg/kg), AD group (0.88 mmol/kg), low dosage group (0.66 mmol/kg) and high dosage group (0.88 mmol/kg) of compound A, B, C and D, with 8 mice in each group. Positive group and each test group are intragastrically given with respective suspension prepared with 0.5% CMC-Na, and normal group and model group are given with 0.5% CMC-Na. The drugs are given for 3 days, and 1 h after the last administration, all mice except those in the normal group are intraperitoneally injected with a single dose of 0.3% carbon tetrachloride in peanut oil (0.1 mL/10 g). After 16 h, the eyeball of the mice in each group is enucleated to collect blood, which is centrifuged at 3000 rpm for 15 min to separate serum. ALT and AST activities are tested respectively (Nanjing Jiancheng Bioengineering Institute). The left lobe of liver is taken to prepare 10% homogenate using physiological saline, MDA (Nanjing Jiancheng Bioengineering Institute) and PGE2 contents are determined. Experimental data are expressed as average±standard deviation (X±s), analyzed with SPSS 11.5 statistic software, with P<0.05 meaning there is a significant difference. Other agents, drugs and experimental methods are the same as in EXAMPLE 1. In experimental investigation of both models, the following grouping method is used: Kunming mice of clean grade (male, weight 20±2 g) are randomly divided into normal group, model group, bifendate group (200 mg/kg), AD group (0.88 mmol/kg), low dosage group (0.66 mmol/kg) and high dosage group (0.88 mmol/kg) of compound E, with 8 mice in each group. Other agents, drugs and experimental methods are the same as in EXAMPLE 1 and in EXAMPLE 4, respectively.

[3] = system: bovine viral diarrhea virus (BVDV-AV69); assay: CPE observation of effects on cytopathy caused by BVDV in MDBK cells
Protocol: Pharmaceutical effects of drugs of the invention against cytopathy caused by inoculation of BVDV virus are investigated using MDBK (NBL-1) cells (purchased from Chinese Academy of Science's Shanghai Center for Type Culture Collection) and bovine viral diarrhea virus (BVDV-AV69) (purchased from China Institute of Veterinary Drugs Control). Ribavirin (R; Henan RunHong Pharmaceutical Co., Ltd; batch number: E0909604) is used as positive drug control. MDBK cells are prepared as a suspension (1×10^5/mL) in RPMI1640 culture medium which contains 10% in volume fetal bovine serum (Zhejiang Tianhang Biotechnology Co., Ltd; batch number: 100524), 100 μg/mL streptomycin (Shenzheng Huayao Nanfang Pharmaceutical Co., Ltd; batch number: N09081), 100 U/mL penicillin (North China Pharmaceutical Co., Ltd; batch number: E0909604), and are seeded in 96 well plates (Costar, US) at 200 μL/well, placed in an incubator (Binder, Germany) at 37° C. with 5% CO2 to culture the cell. In 24 h when cells grow into a single layer, virus solution of 100 TCID50 (TCID50=10^−2.5) is added and incubated for 1.5 h. Maintenance medium with the drug is added at 200 μL/well after 3×PBS washes.
After digestion of MDBK cells with trypsin, cells with a concentration of 1×10^5/mL are seeded into 96 well plates at 200 μL/well, placed in an incubator at 37° C. with 5% CO2 for 24 h. After growing into a single layer, cells are attacked using 100 TCID50 (TCID50=10^−2.5) virus and incubated for 1.5 h. The virus-containing maintenance medium is discarded, and cells are washed with PBS, followed by addition of drug-containing maintenance medium with different concentrations, and incubation in 5% CO2 at 37° C. Normal cell control, virus control, drug treatment and ribavirin treatment groups are set. The cytopathy developing status is recorded everyday by observing under an inverted microscope.

[4] = high dosage 0.88 mmol/kg vs AD 0.88 mmol/kg, P<0.05
[5] = high dosage 0.88 mmol/kg, P<0.01
[6] = low dosage 0.66 mmol/kg, P<0.05 (D), P<0.01 (E)
[7] = dosage groups not distinguished (0.66 and 0.88 mmol/kg), P<0.01
[8] = dosage groups not distinguished, P<0.01
[9] = high dosage 0.88 mmol/kg, P<0.05
[10] = low dosage 0.66 mmol/kg vs AD 0.88 mmol/kg, P<0.05

## C=C1CCC2C(C)(COC(=O)c3cccnc3)C(OC(=O)c3cccnc3)CCC2(C)C1C=CC1=CC(=Cc2ccc(Cl)cc2)OC1=O (stereo not shown) [Compound D, 15-p-chlorobenzylidene-3,19-nicotinate-14-deoxy-11,12-dehydroandrographolide]
MDBK (NBL-1) cells
  cytotoxicity to MDBK cells: do not show obvious cytotoxcity
[1]; high dosage 0.88 mmol/kg
  PGE2 content in liver homogenate relative to normal group: close to that of normal group
[1]; [4]
  enzyme (ALT, AST) lowering effect compared to AD group: obviously increased abilities to lower the enzymes
[1]; [5]
  ALT activity in serum vs model group: notably decreased
  AST activity in serum vs model group: notably decreased
  MDA content in liver homogenate vs model group: significantly reduce
  PGE2 content in liver homogenate vs model group: significantly reduce
[1]; high dosage 0.88 mmol/kg, P<0.01 (B, C), P<0.05 (D)
  ability against liver lipid peroxidation compared with AD group: obviously increased abilities
[1]; low dosage 0.66 mmol/kg, P<0.05 (A), P<0.01 (D)
  PGE2 content in liver homogenate vs model group: significantly reduce
[1]; [6]
  ALT activity in serum vs model group: notably decreased
  AST activity in serum vs model group: notably decreased
[1]; low dosage (printed 0.66 mol/kg), P<0.01
  MDA content in liver homogenate vs model group: significantly reduce
[1]; mice, intragastric, 3 days
  protective effect against liver damage induced by ConA (summary): significant protective effect
[2]; [7]
  ALT activity in serum vs model group: notably suppress the increase
  AST activity in serum vs model group: notably suppress the increase
[2]; [8]
  MDA level in liver homogenate vs model group: effectively reduce
  PGE2 level in liver homogenate vs model group: effectively reduce
[2]; [4]
  magnitude of decrease in ALT activity compared to AD group: significantly better
  magnitude of decrease in AST activity compared to AD group: significantly better
[2]; [9]
  PGE2 content compared to AD group: notably lower
  ability to reduce lipid peroxide level in liver homogenate compared to AD group: stronger ability to reduce the lipid peroxide level
[2]; [10]
  magnitude of decrease in ALT activity compared to AD group: significantly better
  magnitude of decrease in AST activity compared to AD group: significantly better
[2]; low dosage 0.66 mmol/kg, P<0.05
  PGE2 content compared to AD group: notably lower
[2]; mice, intragastric, 3 days
  protective effect against liver damage induced by carbon tetrachloride (summary): protective effect
[3]; BVDV in MDBK cells
  antiviral effect compared with AD: better antiviral effect than AD
  pharmaceutical effect against cytopathy caused by virus compared with ribavirin: better than ribavirin
[3]; MDBK cells, BVDV-AV69, TC50 from MTT, IC50 from CPE
  TI value (therapy index, TC50/IC50): >127.6
